Test results from US20250353864A1, “INDAZOLE CONTAINING MACROCYCLES AND THEIR USE” (BLOSSOMHILL THERAPEUTICS, INC., priority 2022, published 2025).

Key:
Assay type in all cases: biochemical
[1] = target: EGFR WT (Homo sapiens (Human), UniProt P00533); experiment: HotSpot radiometric kinase assay (Reaction Biology), EGFR WT; conditions: 10 μM ATP
In short: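 Compounds were preincubated ~20 min with kinase/substrate in pH 7.5 Hepes buffer (MgCl2, EGTA, Brij35, BSA, Na3VO4, DTT, 1% DMSO), then ATP plus 33P-ATP was added to 10 μM final. After 120 min at room temperature, reactions were spotted on P81 filters and washed; IC50 values came from curve fits.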

[2] = target: CLK3 (Homo sapiens (Human), UniProt P49761); experiment: Inhibition of CLK3 kinase activity evaluated at Nanosyn (ADP-Glo); conditions: ADP-Glo luminescence
In short: (§1)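 Percent inhibition derived from luminescent ADP detection (ADP-Glo), normalised to DMSO-only and enzyme-free wells. Reactions ran in HEPES pH 7.5 buffer with Mg2+, Triton X-100 and BSA, 1% DMSO, ATP-initiated, for an assay-specific time.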

[3] = target: EGFR Δ746-750 mutant (Homo sapiens (Human), UniProt P00533, DEL746-750); experiment: HotSpot radiometric kinase assay, EGFR Δ746-750 mutant; conditions: 10 μM ATP
Sequence of EGFR Δ746-750 mutant (P00533 other isoform, or with tags, fused parts or gaps del 1-668/del 746-750 limits assumed): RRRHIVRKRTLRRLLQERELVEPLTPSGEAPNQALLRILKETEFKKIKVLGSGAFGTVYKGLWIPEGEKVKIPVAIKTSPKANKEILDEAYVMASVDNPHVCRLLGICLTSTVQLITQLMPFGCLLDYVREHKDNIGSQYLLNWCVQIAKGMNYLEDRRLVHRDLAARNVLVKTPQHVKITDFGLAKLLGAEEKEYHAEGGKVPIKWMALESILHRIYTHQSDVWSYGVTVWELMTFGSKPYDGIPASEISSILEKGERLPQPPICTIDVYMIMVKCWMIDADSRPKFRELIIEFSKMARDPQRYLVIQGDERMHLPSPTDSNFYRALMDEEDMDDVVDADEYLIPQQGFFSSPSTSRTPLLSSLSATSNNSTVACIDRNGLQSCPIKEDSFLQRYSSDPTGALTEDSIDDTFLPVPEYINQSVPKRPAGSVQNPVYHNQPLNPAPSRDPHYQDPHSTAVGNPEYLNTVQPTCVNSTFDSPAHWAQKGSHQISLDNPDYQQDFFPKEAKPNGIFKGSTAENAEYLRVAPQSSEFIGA
In short: (§2)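 Enzyme and substrate pairs were exposed to inhibitor for roughly 20 min before radiolabelled ATP (10 μM final) was introduced; the reaction proceeded 120 min at ambient temperature in pH 7.5 buffer with 1% DMSO, and phosphorylated product was captured on P81 filters for IC50 determination.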

[4] = target: EGFR (D770_N771insNPG) (Homo sapiens (Human), UniProt P00533, INS770NPG); experiment: HotSpot radiometric kinase assay, EGFR (D770_N771insNPG); conditions: 10 μM ATP, read-out: EGFR (Δ770_N771insNPG) IC50
Sequence of EGFR (D770_N771insNPG) (P00533 other isoform, or with tags, fused parts or gaps del 1-668/ins NPG behind 770 limits assumed): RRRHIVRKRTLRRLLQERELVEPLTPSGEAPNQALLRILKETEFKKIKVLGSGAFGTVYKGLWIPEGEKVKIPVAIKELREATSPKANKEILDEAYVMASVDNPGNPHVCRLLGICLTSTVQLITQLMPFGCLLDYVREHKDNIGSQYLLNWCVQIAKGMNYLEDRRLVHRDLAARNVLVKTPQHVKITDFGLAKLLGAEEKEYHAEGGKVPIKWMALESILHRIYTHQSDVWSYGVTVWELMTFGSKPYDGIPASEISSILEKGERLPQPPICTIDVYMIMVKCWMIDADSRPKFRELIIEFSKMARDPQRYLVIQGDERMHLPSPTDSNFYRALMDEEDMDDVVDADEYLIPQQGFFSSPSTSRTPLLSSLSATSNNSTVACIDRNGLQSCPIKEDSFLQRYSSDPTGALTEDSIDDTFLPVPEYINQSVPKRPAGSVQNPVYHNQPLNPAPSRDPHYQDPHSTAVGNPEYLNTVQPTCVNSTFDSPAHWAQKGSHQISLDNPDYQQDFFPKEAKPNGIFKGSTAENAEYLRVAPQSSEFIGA
In short: as §2

[5] = target: EGFR L858R/T790M/C797S mutant (Homo sapiens (Human), UniProt P00533, C797S/L858R/T790M); experiment: HotSpot radiometric kinase assay, EGFR L858R/T790M/C797S mutant; conditions: 10 μM ATP
In short: as §2

[6] = target: CLK1 (Homo sapiens (Human), UniProt P49759); experiment: Inhibition of CLK1 kinase activity evaluated at Nanosyn (ADP-Glo); conditions: ADP-Glo luminescence
Sequence of CLK1 (P49759 whole entry): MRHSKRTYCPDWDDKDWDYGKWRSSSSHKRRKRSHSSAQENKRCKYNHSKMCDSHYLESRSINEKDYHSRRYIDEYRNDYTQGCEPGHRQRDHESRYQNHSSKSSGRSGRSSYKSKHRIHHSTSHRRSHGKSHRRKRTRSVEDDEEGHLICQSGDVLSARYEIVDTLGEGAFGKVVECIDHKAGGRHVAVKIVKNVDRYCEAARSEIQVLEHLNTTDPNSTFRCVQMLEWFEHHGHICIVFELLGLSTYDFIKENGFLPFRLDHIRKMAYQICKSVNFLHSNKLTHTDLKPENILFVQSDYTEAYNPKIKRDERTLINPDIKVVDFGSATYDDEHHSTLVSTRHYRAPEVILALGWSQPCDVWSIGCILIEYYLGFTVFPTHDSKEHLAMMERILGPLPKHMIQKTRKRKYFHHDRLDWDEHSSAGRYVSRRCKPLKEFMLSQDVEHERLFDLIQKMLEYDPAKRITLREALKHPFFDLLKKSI
In short: as §1

[7] = target: EGFR Δ746-750/C797S mutant (Homo sapiens (Human), UniProt P00533, C797S/DEL746-750); experiment: HotSpot radiometric kinase assay, EGFR Δ746-750/C797S mutant; conditions: 10 μM ATP
Sequence of EGFR Δ746-750/C797S mutant (P00533 other isoform, or with tags, fused parts or gaps C797S/del 1-668/del 746-750 limits assumed): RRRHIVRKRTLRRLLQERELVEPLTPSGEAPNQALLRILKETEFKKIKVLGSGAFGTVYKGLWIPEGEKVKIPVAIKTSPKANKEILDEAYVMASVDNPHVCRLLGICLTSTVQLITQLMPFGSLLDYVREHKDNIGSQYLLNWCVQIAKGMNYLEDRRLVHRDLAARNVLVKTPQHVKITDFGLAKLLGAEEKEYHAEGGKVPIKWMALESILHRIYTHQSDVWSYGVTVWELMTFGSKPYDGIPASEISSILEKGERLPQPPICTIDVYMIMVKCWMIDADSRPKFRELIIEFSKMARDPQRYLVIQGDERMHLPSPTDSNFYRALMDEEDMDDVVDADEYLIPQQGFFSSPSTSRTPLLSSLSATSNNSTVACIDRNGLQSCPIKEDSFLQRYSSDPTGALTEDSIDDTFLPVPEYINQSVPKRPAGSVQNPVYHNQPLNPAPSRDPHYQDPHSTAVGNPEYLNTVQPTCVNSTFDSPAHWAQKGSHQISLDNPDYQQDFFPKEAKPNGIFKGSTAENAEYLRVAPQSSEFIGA
In short: as §2

[8] = target: EGFR L858R mutant (Homo sapiens (Human), UniProt P00533, L858R); experiment: HotSpot radiometric kinase assay, EGFR L858R mutant; conditions: 10 μM ATP
In short: as §2

[9] = target: CLK4 (Homo sapiens (Human), UniProt Q9HAZ1); experiment: Inhibition of CLK4 kinase activity evaluated at Nanosyn (ADP-Glo); conditions: ADP-Glo luminescence
Sequence of CLK4 (Q9HAZ1 whole entry): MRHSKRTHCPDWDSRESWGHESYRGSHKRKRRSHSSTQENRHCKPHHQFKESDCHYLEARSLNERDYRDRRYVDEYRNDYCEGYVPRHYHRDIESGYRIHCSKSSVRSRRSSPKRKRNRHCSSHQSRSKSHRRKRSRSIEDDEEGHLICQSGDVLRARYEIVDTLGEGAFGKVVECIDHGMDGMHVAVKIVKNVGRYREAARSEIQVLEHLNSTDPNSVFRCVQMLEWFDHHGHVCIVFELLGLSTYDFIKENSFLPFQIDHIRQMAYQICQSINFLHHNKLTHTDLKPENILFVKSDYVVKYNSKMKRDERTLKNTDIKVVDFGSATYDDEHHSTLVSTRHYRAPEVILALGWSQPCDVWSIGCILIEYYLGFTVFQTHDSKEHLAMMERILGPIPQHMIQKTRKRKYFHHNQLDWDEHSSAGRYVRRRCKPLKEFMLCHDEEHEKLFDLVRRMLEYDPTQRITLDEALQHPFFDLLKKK
In short: as §1

[10] = target: EGFR L858R/T790M mutant (Homo sapiens (Human), UniProt P00533, L858R/T790M); experiment: HotSpot radiometric kinase assay, EGFR L858R/T790M mutant; conditions: 10 μM ATP
Sequence of EGFR L858R/T790M mutant (P00533 25-1210 T790M/L858R): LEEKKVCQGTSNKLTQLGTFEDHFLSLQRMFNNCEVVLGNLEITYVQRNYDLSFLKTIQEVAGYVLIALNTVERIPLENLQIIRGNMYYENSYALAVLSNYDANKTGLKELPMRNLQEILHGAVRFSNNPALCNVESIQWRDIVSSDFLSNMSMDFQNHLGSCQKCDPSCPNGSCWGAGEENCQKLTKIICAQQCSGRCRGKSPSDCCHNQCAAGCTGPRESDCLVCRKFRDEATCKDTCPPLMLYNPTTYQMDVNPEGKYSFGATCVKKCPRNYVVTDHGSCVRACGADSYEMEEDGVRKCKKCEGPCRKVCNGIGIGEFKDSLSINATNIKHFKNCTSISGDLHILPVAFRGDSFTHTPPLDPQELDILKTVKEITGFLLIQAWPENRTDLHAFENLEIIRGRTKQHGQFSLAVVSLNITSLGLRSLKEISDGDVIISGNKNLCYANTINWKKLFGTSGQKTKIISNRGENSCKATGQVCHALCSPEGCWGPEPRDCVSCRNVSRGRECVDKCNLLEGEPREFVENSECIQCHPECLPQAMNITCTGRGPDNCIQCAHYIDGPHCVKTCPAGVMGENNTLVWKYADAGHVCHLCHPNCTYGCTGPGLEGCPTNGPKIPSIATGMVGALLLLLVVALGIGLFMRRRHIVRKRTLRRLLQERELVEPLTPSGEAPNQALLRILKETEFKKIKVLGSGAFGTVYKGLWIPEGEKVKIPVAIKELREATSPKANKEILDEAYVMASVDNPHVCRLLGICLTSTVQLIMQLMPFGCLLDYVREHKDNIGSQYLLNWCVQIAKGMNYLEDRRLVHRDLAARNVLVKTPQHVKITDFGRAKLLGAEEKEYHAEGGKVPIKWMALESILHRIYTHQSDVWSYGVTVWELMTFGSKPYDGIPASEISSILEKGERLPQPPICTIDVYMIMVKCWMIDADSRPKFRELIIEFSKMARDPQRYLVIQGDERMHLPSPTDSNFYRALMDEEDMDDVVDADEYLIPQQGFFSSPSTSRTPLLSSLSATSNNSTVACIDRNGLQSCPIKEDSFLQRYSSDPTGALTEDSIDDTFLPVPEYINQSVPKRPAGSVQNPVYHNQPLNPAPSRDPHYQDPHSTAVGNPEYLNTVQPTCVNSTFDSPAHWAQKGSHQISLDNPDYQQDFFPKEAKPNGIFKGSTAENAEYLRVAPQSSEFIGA
In short: as §2

[11] = target: CLK2 (Homo sapiens (Human), UniProt P49760); experiment: Inhibition of CLK2 kinase activity evaluated at Nanosyn (ADP-Glo); conditions: ADP-Glo luminescence
In short: as §1

Sequence of EGFR WT (P00533 25-1210): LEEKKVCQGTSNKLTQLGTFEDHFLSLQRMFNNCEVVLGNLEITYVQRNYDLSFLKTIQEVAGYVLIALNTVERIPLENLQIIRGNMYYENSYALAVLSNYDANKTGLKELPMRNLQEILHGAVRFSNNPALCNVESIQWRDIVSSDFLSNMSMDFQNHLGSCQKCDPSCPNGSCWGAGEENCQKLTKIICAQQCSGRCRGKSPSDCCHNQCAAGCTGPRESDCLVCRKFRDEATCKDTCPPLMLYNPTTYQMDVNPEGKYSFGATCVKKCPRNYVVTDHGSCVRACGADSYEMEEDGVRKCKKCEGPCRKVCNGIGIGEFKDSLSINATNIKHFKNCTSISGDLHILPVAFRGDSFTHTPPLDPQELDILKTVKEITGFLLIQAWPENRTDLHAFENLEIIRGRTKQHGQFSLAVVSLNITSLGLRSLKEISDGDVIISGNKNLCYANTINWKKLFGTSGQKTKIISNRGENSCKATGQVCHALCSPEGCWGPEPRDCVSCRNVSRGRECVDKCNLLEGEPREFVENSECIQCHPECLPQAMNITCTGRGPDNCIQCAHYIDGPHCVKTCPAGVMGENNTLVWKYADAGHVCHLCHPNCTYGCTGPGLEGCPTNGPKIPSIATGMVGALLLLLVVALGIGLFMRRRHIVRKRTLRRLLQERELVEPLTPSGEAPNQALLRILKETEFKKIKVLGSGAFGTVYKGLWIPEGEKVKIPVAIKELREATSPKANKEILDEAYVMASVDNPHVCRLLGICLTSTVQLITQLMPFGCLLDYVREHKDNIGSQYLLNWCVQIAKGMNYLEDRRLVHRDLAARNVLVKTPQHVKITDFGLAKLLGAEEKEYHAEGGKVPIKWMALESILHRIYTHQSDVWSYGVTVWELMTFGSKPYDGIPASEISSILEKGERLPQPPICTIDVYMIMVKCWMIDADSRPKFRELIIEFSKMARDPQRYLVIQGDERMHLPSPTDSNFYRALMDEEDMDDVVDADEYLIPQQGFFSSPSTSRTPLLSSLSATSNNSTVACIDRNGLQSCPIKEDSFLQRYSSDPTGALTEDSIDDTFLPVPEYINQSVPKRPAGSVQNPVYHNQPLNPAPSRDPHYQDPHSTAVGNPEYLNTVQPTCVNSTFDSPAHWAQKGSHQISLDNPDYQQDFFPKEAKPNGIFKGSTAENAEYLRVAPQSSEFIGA

For `CC(C)c1noc2c1/C=C/c1n[nH]c3ccc(cc13)-c1cnn(C)c1O[C@@H](C)CN(C)C2` [Example 179, (10S,17E)-8,10,12-trimethyl-16-(propan-2-yl)-2,8,10,11,12,13-hexahydro-3,5-etheno[1,2]oxazolo[5,4-f]dipyrazolo[3,4-j:4′,3′-n][1,4]oxazacyclopentadecine], the IC50 [1] was > 1000 nM, the IC50 [2] was 1000 nM and the IC50 [3] was > 1000 nM. The IC50 [4] was > 1000 nM, the IC50 [5] was 507 nM and the IC50 [6] was 2.75 nM. The IC50 [7] was > 1000 nM, the IC50 [8] was > 1000 nM and the IC50 [9] was 1.66 nM. The IC50 [10] was 1010 nM and the IC50 [11] was 9.57 nM.

Work on `CCN1Cc2c(c(OC(C)C)nn2CC(C)=O)/C=C/c2n[nH]c3ccc(cc23)-c2cnn(C)c2O[C@@H](C)C1` [Example 263, 1-{(10S,17E)-12-ethyl-8,10-dimethyl-16-[(propan-2-yl)oxy]-2,8,10,11.12,13-hexahydro-14H-3,5-ethenotripyrazolo[3,4-f:3′,4′-j:4″,3″-n][1,4]oxazacyclopentadecin-14-yl}propan-2-one] yielded an IC50 [1] of 6.94 nM, an IC50 [2] of 32.7 nM and an IC50 [3] of 1.28 nM. The IC50 [4] was 18.2 nM, the IC50 [5] was 0.5 nM and the IC50 [6] was 0.64 nM. For the same compound, the IC50 [7] was 1.79 nM, the IC50 [8] was 3.97 nM and the IC50 [9] was 1.31 nM. The IC50 [10] was 0.75 nM and the IC50 [11] was 0.71 nM.

In the case of `Cc1nn(C)c2c1/C=C/c1n[nH]c3ccc(cc13)-c1cnn(C)c1O[C@@H]1CCCN(C2)C1` [Example 122, (10R,19E)-8,16,18-trimethyl-2,8,10,11,12,13,15,16-octahydro-3,5-etheno-10,14-methanotripyrazolo[3,4-h:3′,4′-l:4″,3″-p][1,6]oxazacycloheptadecine], the IC50 [1] is reported as 94.2 nM, the IC50 [2] is reported as 21.2 nM and the IC50 [3] is reported as 7.45 nM. It also gave an IC50 [4] of 58 nM, an IC50 [5] of 2.09 nM and an IC50 [6] of 0.27 nM. For the same compound, the IC50 [7] was 6.79 nM, the IC50 [8] was 11.9 nM and the IC50 [9] was 0.6 nM. The IC50 [10] was 1.46 nM and the IC50 [11] was 0.15 nM.

Compound `Cc1c2c(nn1C[C@H](C)O)CN(C)C[C@H](C)Oc1c(cnn1C)-c1ccc3[nH]nc(c3c1)/C=C/2` [Example 124, (2S)-1-[(10S,17E)-8,10,12,16-tetramethyl-2,8,10,11,12,13-hexahydro-15H-3,5-ethenotripyrazolo[3,4-f:3′,4′-j:4″,3″-n][1,4]oxazacyclopentadecin-15-yl]propan-2-ol] has an IC50 [1] of 168 nM, an IC50 [2] of 186 nM and an IC50 [3] of 18.3 nM. For the same compound, the IC50 [4] was 140 nM, the IC50 [5] was 2.32 nM and the IC50 [6] was 0.15 nM. The IC50 [7] was 13.9 nM, the IC50 [8] was 18.3 nM and the IC50 [9] was 0.37 nM. For the same compound, the IC50 [10] was 3.32 nM and the IC50 [11] was 0.29 nM.

For `Cn1ncc2c1OCCN1CC[C@@H](Oc3ccc(F)cc3/C=C/c3n[nH]c4ccc-2cc34)C1=O` [Example 132, (10R,16E)-14-fluoro-3-methyl-3,5,6,9,10,19-hexahydro-8H-20,22-etheno-7,10-methanodipyrazolo[3,4-i:4′,3′-m][1,8,5]benzodioxazacyclooctadecin-25-one], the IC50 [1] was 721 nM, the IC50 [2] was 0.28 nM and the IC50 [3] was 39.4 nM. The IC50 [4] was 284 nM, the IC50 [5] was 35.3 nM and the IC50 [6] was 0.19 nM. It also gave an IC50 [7] of 67 nM, an IC50 [8] of 157 nM and an IC50 [9] of 0.3 nM. For the same compound, the IC50 [10] was 20.1 nM and the IC50 [11] was 0.02 nM.

Work on `C[C@@H](C#N)Oc1nn(CCO)c2c1/C=C/c1n[nH]c3cc(F)c(cc13)-c1cnn(C)c1O[C@@H](C)CN(C)C2` [Ex. 269, (2S)-2-{[(10S,17E)-19-fluoro-14-(2-hydroxyethyl)-8,10,12-trimethyl-2,10,11,12,13,14-hexahydro-8H-3,5-ethenotripyrazolo[3,4-f:3′,4′-j:4″,3″-n][1,4]oxazacyclopentadecin-16-yl]oxy}propanenitrile] yielded an IC50 [1] of 20.3 nM, an IC50 [2] of 238 nM and an IC50 [3] of 5.25 nM. The IC50 [4] was 102 nM, the IC50 [5] was 0.67 nM and the IC50 [6] was 0.94 nM. It also gave an IC50 [7] of 2.56 nM, an IC50 [8] of 8.53 nM and an IC50 [9] of 1.76 nM. It also gave an IC50 [10] of 1.82 nM and an IC50 [11] of 0.32 nM.

With `C[C@H]1CN(C)Cc2c(c(O)nn2CCO)/C=C/c2n[nH]c3ccc(cc23)-c2cnn(C)c2O1` [Example 186, (10S,17E)-14-(2-hydroxyethyl)-8,10,12-trimethyl-2,10,11,12,13,14-hexahydro-8H-3,5-ethenotripyrazolo[3,4-f:3′,4′-j:4″,3″-n][1,4]oxazacyclopentadecin-16-ol] the IC50 [1] was 43.8 nM, the IC50 [2] was 126 nM and the IC50 [3] was 12.9 nM. For the same compound, the IC50 [4] was 59.1 nM, the IC50 [5] was 0.46 nM and the IC50 [6] was 0.24 nM. It also gave an IC50 [7] of 3.06 nM, an IC50 [8] of 14.6 nM and an IC50 [9] of 1 nM. It also gave an IC50 [10] of 1.48 nM and an IC50 [11] of 0.18 nM.

`Cc1nn(CCO)c2c1/C=C/c1n[nH]c3cc(Cl)c(cc13)-c1cnn(C)c1O[C@@H](C)CN(C)C2` [Example 125, 2-[(10S,17E)-19-chloro-8,10,12,16-tetramethyl-2,8,10,11,12,13-hexahydro-14H-3,5-ethenotripyrazolo[3,4-f:3′,4′-j:4″,3″-n][1,4]oxazacyclopentadecin-14-yl]ethan-1-ol] showed an IC50 [1] of 138 nM, an IC50 [2] of 1000 nM and an IC50 [3] of 20.6 nM. For the same compound, the IC50 [4] was 175 nM, the IC50 [5] was 7.49 nM and the IC50 [6] was 3.44 nM. The IC50 [7] was 4.99 nM, the IC50 [8] was 11.9 nM and the IC50 [9] was 4.31 nM. The IC50 [10] was 43.6 nM and the IC50 [11] was 2.81 nM.

`Cc1nn(CCO)c2c1/C=C/c1n[nH]c3ccc(cc13)-c1cnn(C)c1O[C@@H](C)CN(C(C)C)C2` [Example 114, 2-[(10S,17E)-8,10,16-trimethyl-12-(propan-2-yl)-2,8,10,11,12,13-hexahydro-14H-3,5-ethenotripyrazolo[3,4-f:3′,4′-j:4″,3″- n][1,4]oxazacyclopentadecin-14-yl]ethan-1-ol] gave an IC50 [1] of 0.38 nM, an IC50 [2] of 20.9 nM and an IC50 [3] of 0.17 nM. For the same compound, the IC50 [4] was 0.91 nM, the IC50 [5] was 0.98 nM and the IC50 [6] was 0.23 nM. For the same compound, the IC50 [7] was 0.92 nM, the IC50 [8] was 0.1 nM and the IC50 [9] was 0.46 nM. The IC50 [10] was 0.11 nM and the IC50 [11] was 0.12 nM.

`CCOc1nn([C@@H](C)CO)c2c1/C=C/c1n[nH]c3cc(F)c(cc13)-c1cnn(C)c1O[C@H](C)CN(C(C)C)C2` [Example 229, (2S)-2-[(10R,17E)-16-ethoxy-19-fluoro-8,10-dimethyl-12-(propan-2-yl)-2,8,10,11,12,13-hexahydro-14H-3,5-ethenotripyrazolo[3,4-f:3′,4′-j:4″,3″- n][1,4]oxazacyclopentadecin-14-yl]propan-1-ol] showed an IC50 [1] of 24.8 nM, an IC50 [2] of 1000 nM and an IC50 [3] of 1.94 nM. The IC50 [4] was 38.6 nM, the IC50 [5] was 1.24 nM and the IC50 [6] was 131 nM. It also gave an IC50 [7] of 4.05 nM, an IC50 [8] of 7.1 nM and an IC50 [9] of 68.5 nM. It also gave an IC50 [10] of 4.07 nM and an IC50 [11] of 59.6 nM.

`Cc1nn(C)c2c1/C=C/c1n[nH]c3ccc(cc13)-c1cnn(C)c1O[C@@H](C)CN(C1CC1)C2` [Example 161, (10S,17E)-12-cyclopropyl-8,10,14,16-tetramethyl-2,10,11,12,13,14-hexahydro-8H-3,5-ethenotripyrazolo[3,4-f:3′,4′-j:4″,3″-n][1,4]oxazacyclopentadecine] showed an IC50 [1] of 171 nM, an IC50 [2] of 164 nM and an IC50 [3] of 20 nM. For the same compound, the IC50 [4] was 191 nM, the IC50 [5] was 1.4 nM and the IC50 [6] was 0.27 nM. It also gave an IC50 [7] of 13.5 nM, an IC50 [8] of 47.1 nM and an IC50 [9] of 0.57 nM. For the same compound, the IC50 [10] was 3.1 nM and the IC50 [11] was 0.14 nM.
